Where a name gives a salt, the structure may show the parent alone.

Usually melting point stands for the temperature, or range, at which the solid turns liquid.

As to `CN1C(=O)[C@@H](CN2CCCCC2)C[C@H]1c1ccc(Br)cc1` (as salt: HCl) [Example A7, (−)-cis-5-(4-Bromo-phenyl)-1-methyl-3-piperidin-1-ylmethyl-pyrrolidin-2-one], the melting point fell in the range of 55 to 58 °C.

The molecule `Cc1cc(C)cc([C@@H]2C[C@H](CN3CCCCC3)C(=O)N2C)c1.Cl` [Example A3] displayed a melting point of 184 to 190 °C.

As to `CN1C(=O)[C@@H](CN2CCCCC2)C[C@H]1c1ccc(-c2cccc(Cl)c2)s1.Cl` [Example E10], the melting point was in the range of 155 to 158 °C.

For `CN1C(=O)[C@@H](CN2CCCCC2)C[C@H]1C#Cc1ccccc1Cl.Cl` [Example D5], the melting point lay within 166 to 169 °C.

The molecule `Cc1cc(C)cc([C@@H]2C[C@H](CN3CCCCC3)C(=O)N2C)c1.Cl` [Example A4] showed a melting point of 172 to 180 °C.

On to `CN1C(=O)[C@@H](CN2CCCCC2)C[C@H]1C#Cc1ccccc1Cl.Cl` [Example D6], for which the melting point lay within 160 to 165 °C.

`CN1C(=O)[C@@H](CN2CCCCC2)C[C@H]1c1ccc(Br)s1` [Example E1, (+)-cis-5-(5-Bromo-thiophen-2-yl)-1-methyl-3-piperidin-1-ylmethyl-pyrrolidin-2-one] had a melting point of 69 to 71 °C.

`CN1C(=O)[C@@H](CN2CCCCC2)C[C@H]1c1ccc2c(c1)CCCC2.Cl` [Example A6] gave a melting point of 234 to 238 °C.

Consider `CN1C(=O)[C@@H](CN2CCCCC2)C[C@H]1c1cnc(-c2ccccc2Cl)s1.Cl` [Example F2], for which the melting point lay in the range of 171 to 176 °C.

`Cc1ccc([C@@H]2C[C@H](CN3CCCCC3)C(=O)N2C)cc1C.Cl` [Example A2]: the melting point lay within 138 to 142 °C.

For `CN1C(=O)[C@@H](CN2CCCCC2)C[C@H]1c1ccc(-c2ccccc2Cl)cc1.Cl` [Example H3], the melting point was 130 to 135 °C.

For `CN1C(=O)[C@@H](CN2CCCCC2)C[C@H]1c1cnc(-c2sccc2Cl)s1.Cl` [Example F3], the melting point was 215 to 220 °C.

`Cc1ccc([C@@H]2C[C@H](CN3CCCCC3)C(=O)N2C)cc1C.Cl` [Example A1] gave a melting point of 143 to 147 °C.

In the case of `CN1C(=O)[C@@H](CN2CCCCC2)C[C@H]1c1ccc(-c2ccc3c(c2)OCO3)cc1` (relative stereo) [Example H5, cis-5-(4-(Benzo[1,3]dioxol-5-yl)-phenyl)-1-methyl-3-piperidin-1-ylmethyl-pyrrolidin-2-one], the melting point lay in the range of 110 to 112 °C.

For `Cc1cccc(C#C[C@@H]2C[C@H](CN3CCCCC3)C(=O)N2C)c1.Cl` [Example D2], the melting point lay within 169 to 172 °C.

`CN1C(=O)[C@@H](CN2CCCCC2)C[C@H]1c1cnc(-c2ccccc2Cl)s1.Cl` [Example F1] displayed a melting point of 178 to 183 °C.

In turn, `CN1C(=O)[C@@H](CN2CCCCC2)C[C@H]1C#Cc1ccccc1.Cl` [Example D3] returned a melting point of 197 to 201 °C.

`Cc1cccc(C#C[C@@H]2C[C@H](CN3CCCCC3)C(=O)N2C)c1.Cl` [Example D1] registered a melting point of 163 to 167 °C.

`CN1C(=O)C(CN2CCCCC2)CC1C1CC1c1ccccc1Cl` (stereo not shown) [Example C2, 5-[2-(2-Chloro-phenyl)-cyclopropyl]-1-methyl-3-piperidin-1-ylmethyl-pyrrolidin-2-one] had a melting point of 87 to 90 °C.

Consider `CC(=O)Nc1ccccc1C#C[C@H]1C[C@@H](CN2CCCCC2)C(=O)N1C.Cl`, for which the melting point was 135 to 140 °C.

Regarding `CN1C(=O)[C@@H](CN2CCCCC2)C[C@H]1c1ccc(-c2ccccc2Cl)cc1.Cl` [Example H2], the melting point was in the range of 134 to 139 °C.

On to `CN1C(=O)[C@@H](CN2CCCCC2)C[C@H]1C#Cc1ccccc1.Cl` [Example D4], for which the melting point lay within 199 to 203 °C.

`CN1C(=O)[C@@H](CN2CCCCC2)C[C@H]1c1ccc2c(c1)CCCC2.Cl` [Example A5]: the melting point lay in the range of 208 to 210 °C.

For the molecule `CN1C(=O)[C@@H](CN2CCCCC2)C[C@H]1c1cnc(-c2sccc2Cl)s1.Cl` [Example F4], the melting point was 207 to 210 °C.

As to `CN1C(=O)[C@@H](CN2CCCCC2)C[C@H]1c1ccc(-c2cccc(Cl)c2)s1.Cl` [Example E9], the melting point fell in the range of 162 to 163 °C.

(Values after patent US20070172421A1, “Substituted pyrrolidine-2-ones” (priority 2004, published 2007).)
